According to paper PMC2556091 (The EMBO Journal, 2008):

Target: T1, XcOGT (Xanthomonas campestris, UniProt Q8PC69)
T1 sequence (Q8PC69 1-568): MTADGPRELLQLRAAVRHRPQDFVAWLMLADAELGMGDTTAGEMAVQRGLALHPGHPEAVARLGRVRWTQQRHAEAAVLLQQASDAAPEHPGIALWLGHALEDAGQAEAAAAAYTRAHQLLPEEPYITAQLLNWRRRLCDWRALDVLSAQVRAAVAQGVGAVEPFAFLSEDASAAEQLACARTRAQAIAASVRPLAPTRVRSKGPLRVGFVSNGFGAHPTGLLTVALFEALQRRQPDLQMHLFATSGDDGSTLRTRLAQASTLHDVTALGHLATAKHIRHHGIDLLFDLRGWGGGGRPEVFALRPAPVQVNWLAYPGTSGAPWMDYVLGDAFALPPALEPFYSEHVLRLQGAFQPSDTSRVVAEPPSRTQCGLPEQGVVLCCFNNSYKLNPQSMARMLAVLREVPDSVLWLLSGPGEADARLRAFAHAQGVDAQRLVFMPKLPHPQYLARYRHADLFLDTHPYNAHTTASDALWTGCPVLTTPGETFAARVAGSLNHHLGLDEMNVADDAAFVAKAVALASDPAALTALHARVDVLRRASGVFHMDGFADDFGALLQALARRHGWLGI
Assay: surface plasmon resonance
Type: binding

Kd: 4.2 µM
SMILES: CC(=O)N[C@H]1[C@@H](OP(=O)(O)OP(=O)(O)OC[C@H]2O[C@@H](n3ccc(=O)[nH]c3=O)[C@H](O)[C@@H]2O)O[C@H](CO)[C@@H](O)[C@@H]1O [UDP-GlcNAc]
